Experimental data published in patent publication EP4800012A1, “COMPOUND ACTING AS PARP7 INHIBITOR” (Dovetree Medicines Unus, Inc., priority 2023, dated 2025).
Read-outs that look alike come from different tables or passages of the source.

What was measured:
PARP7 [1] = molecular target: T1, PARP7 (Homo sapiens, UniProt Q7Z3E1); test: Inhibition of the compound on PARP7 protein activity (ADP-ribosylation, chemiluminescence); format: biochemical
T1 construct: purchased BPS 80527
T1 sequence (Q7Z3E1 1-657): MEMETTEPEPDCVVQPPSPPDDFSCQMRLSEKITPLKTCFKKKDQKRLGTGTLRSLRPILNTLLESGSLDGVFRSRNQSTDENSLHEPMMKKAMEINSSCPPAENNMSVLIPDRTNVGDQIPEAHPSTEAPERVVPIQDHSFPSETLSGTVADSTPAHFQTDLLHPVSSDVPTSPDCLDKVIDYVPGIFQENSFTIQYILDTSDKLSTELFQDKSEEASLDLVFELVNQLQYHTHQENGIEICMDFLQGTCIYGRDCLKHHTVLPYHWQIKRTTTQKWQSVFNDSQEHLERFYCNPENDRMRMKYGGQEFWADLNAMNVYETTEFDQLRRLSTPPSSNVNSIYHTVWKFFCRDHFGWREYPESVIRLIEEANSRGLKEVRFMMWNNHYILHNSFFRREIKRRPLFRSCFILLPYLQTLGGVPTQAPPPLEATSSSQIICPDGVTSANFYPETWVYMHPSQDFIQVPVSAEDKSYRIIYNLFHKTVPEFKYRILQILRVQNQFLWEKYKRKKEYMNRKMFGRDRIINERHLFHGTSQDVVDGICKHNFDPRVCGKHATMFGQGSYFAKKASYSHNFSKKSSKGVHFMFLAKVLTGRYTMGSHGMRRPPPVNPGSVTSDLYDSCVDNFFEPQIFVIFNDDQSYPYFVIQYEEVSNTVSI

NCI-H1373 cells = test: Inhibition on NCI-H1373 cell proliferation (Cell-Titer-Glo); format: cell-based; details: Homo sapiens, 144 h; NCI-H1373 cells, incubation for 6 days, Cell-Titer-Glo; read-out: NCI-H1373 cell proliferation inhibition IC50
PARP7 [2] = molecular target: T1, PARP7; test: PARP7 TR-FRET binding inhibition (displacement of probe RBN011147)
Procedure: The ability of the compound to substitute the probe RBN011147 (Wigle et al., 2020, Cell Chemical Biology 27, 877-887) was tested by a TR-FRET method, and IC50 was calculated to evaluate the binding ability of the compound to PARP7. […]

PARP1 = PARP1 (Homo sapiens, UniProt P09874); test: PARP1 in vitro enzyme activity inhibition (chemiluminescence assay); format: biochemical
Procedure: (§1) Following the method in test example 1, the IC50 value of the inhibition of each compound on PARP7 activity were detected and obtained. Reference was made to the method in test example 1, except that the 6.25 nM of PARP7 solution in the ribosylation reaction step was replaced with a 5 nM of PARP1 solution or a 5 nM of PARP2. Similar to the 6.25 nM of PARP7 solution, the 5 nM of PARP1 solution and 5 nM of PARP2 solution were also formulated and obtained by using 1× Assay buffer.

PARP2 = PARP2 (Homo sapiens, UniProt Q9UGN5); test: PARP2 in vitro enzyme activity inhibition (chemiluminescence assay); format: biochemical
Procedure: as §1

PARP7 [3] = molecular target: T1, PARP7; test: PARP7 in vitro enzyme activity inhibition (chemiluminescence assay, selectivity test); format: biochemical
Procedure: as §1

[4] = Histone H1 coated plate, Biotin-Labeled NAD+, 2 h at room temperature, chemiluminescence; read-out: PARP7 activity inhibition IC50
[5] = TR-FRET, Biotin-labeled probe RBN011147; read-out: PARP7 binding inhibition IC50
[6] = 5 nM of PARP1 solution, method of test example 1; read-out: PARP1 activity inhibition IC50
[7] = 5 nM of PARP2, method of test example 1; read-out: PARP2 activity inhibition IC50
[8] = 6.25 nM of PARP7 solution, method of test example 1; read-out: PARP7 activity inhibition IC50

PARP1, sequence (P09874 whole entry, species assumed): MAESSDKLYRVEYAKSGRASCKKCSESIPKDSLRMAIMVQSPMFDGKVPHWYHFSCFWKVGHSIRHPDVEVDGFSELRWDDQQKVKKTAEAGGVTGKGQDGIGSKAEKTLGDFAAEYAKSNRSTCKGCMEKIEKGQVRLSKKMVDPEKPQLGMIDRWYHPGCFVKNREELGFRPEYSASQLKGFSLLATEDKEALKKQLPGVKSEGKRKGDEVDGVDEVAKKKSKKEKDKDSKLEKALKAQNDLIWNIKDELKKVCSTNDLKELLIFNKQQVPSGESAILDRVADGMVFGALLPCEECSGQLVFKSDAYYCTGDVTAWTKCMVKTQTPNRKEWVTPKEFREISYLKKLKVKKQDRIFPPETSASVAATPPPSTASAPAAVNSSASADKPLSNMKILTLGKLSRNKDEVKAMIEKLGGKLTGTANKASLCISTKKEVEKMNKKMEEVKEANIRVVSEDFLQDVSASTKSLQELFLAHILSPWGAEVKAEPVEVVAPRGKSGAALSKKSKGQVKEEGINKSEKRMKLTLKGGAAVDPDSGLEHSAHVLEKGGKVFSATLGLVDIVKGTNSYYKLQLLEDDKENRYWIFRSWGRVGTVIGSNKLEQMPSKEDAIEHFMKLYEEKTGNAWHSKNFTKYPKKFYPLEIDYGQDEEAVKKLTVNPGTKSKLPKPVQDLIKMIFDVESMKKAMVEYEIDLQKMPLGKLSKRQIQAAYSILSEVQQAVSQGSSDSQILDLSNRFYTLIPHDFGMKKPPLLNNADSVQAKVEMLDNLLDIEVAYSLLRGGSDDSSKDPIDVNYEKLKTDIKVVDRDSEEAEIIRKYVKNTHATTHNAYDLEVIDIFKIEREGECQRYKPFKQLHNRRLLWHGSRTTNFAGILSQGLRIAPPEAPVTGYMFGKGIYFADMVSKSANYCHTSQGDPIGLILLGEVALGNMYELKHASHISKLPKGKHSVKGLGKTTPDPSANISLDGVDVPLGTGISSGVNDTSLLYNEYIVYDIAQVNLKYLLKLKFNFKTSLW
PARP2, sequence (Q9UGN5 whole entry, species assumed): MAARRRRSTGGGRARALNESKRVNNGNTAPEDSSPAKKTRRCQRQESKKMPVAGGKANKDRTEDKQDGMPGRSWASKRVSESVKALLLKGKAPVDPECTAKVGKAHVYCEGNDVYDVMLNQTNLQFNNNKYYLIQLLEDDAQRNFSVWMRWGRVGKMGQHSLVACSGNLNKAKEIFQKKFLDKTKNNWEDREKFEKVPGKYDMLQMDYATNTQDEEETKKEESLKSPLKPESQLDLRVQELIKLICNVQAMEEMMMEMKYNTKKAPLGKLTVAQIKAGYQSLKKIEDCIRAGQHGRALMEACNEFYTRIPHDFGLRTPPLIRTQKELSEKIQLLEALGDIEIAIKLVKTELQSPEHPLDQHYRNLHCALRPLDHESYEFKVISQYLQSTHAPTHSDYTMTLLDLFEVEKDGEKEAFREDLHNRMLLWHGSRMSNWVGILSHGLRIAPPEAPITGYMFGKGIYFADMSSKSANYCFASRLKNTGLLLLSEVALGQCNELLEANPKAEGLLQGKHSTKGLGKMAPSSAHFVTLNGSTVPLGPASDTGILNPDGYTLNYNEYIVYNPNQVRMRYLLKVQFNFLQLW

Row | SMILES | IC50 (PARP7 [1]; [4]) | IC50 (NCI-H1373 cells) | IC50 (PARP7 [2]; [5]) | IC50 (PARP1; [6]) | IC50 (PARP2; [7]) | IC50 (PARP7 [3]; [8]) | IC50 (PARP7 [1]; read-out: PARP7 activity inhibition IC50; Histone H1 coated plate, Biotin-Labeled NAD+, 2 h at room temperature, chemiluminescence) | IC50 (PARP7 [2]; read-out: PARP7 binding inhibition IC50; TR-FRET, Biotin-labeled probe RBN011147) | IC50 (PARP1; read-out: PARP1 activity inhibition IC50; 5 nM of PARP1 solution, method of test example 1) | IC50 (PARP2; read-out: PARP2 activity inhibition IC50; 5 nM of PARP2, method of test example 1) | IC50 (PARP7 [3]; read-out: PARP7 activity inhibition IC50; 6.25 nM of PARP7 solution, method of test example 1)
1 | CC(CCCNC(=O)c1cnc(-c2ncc(C(F)(F)F)cn2)cn1)Nc1cn[nH]c(=O)c1C(F)(F)F (stereo not drawn) [Example 4] | < 3 nM | 300 to 1000 nM | < 10 nM | 30 to 100 nM | 3 to 10 nM | < 3 nM |  |  |  |  | 
2 | Cc1c(CCC(=O)Nc2ccc(-c3ncc(C(F)(F)F)cn3)cc2)c[nH]c(=O)c1C(F)(F)F [Example 10] | < 3 nM | 1000 to 3000 nM | < 10 nM | 3 to 10 nM | 3 to 10 nM | < 3 nM |  |  |  |  | 
3 | CC(CCCNC(=O)c1ccc(-c2ncc(C(F)(F)F)s2)cc1)Nc1cn[nH]c(=O)c1C(F)(F)F (stereo not drawn) [Example 17] | < 3 nM | < 300 nM | < 10 nM | 10 to 30 nM | < 3 nM | < 3 nM |  |  |  |  | 
4 | O=C(CCc1c[nH]c(=O)c(C(F)(F)F)c1N1CC2(CCC2)C1)Nc1ccc(-c2ncc(C(F)(F)F)s2)cn1 [Example 69] | < 3 nM | > 3000 nM | < 10 nM | > 100 nM | > 100 nM | < 3 nM |  |  |  |  | 
5 | O=C(CCc1c[nH]c(=O)c(C(F)(F)F)c1N1CC2(CCC2)C1)Nc1ccc(-c2ncc(C(F)(F)F)cn2)cn1 [Example 70] |  | > 3000 nM |  |  |  |  | 3 to 10 nM | < 10 nM | > 100 nM | > 100 nM | 3 to 10 nM
6 | O=C(NCCCC(Nc1cn[nH]c(=O)c1C(F)(F)F)C(=O)N1CCCC1)c1ccc(-c2ncc(C(F)(F)F)cn2)cc1 (stereo not drawn) [Example 84] | < 3 nM | 300 to 1000 nM | 10 to 30 nM | > 100 nM | 10 to 30 nM | < 3 nM |  |  |  |  | 
7 | CC1(C)CN(C(=O)C(CCCNC(=O)c2ccc(-c3ncc(C(F)(F)F)s3)cc2)Nc2cn[nH]c(=O)c2C(F)(F)F)C1 (stereo not drawn) [Example 85] | < 3 nM | 300 to 1000 nM | < 10 nM | 30 to 100 nM | 3 to 10 nM | < 3 nM |  |  |  |  | 
8 | O=C(NCCCC(Nc1cn[nH]c(=O)c1C(F)(F)F)C(=O)N1CCCC1)c1ccc(-c2ncc(C(F)(F)F)s2)cc1 (stereo not drawn) [Example 86] | < 3 nM | < 300 nM | < 10 nM | 10 to 30 nM | 3 to 10 nM | < 3 nM |  |  |  |  | 
9 | O=C(NCCCC(Nc1cn[nH]c(=O)c1C(F)(F)F)C(=O)N1CC2(CCC2)C1)c1cnc(-c2ncc(C(F)(F)F)cn2)cn1 (stereo not drawn) [Example 87] | < 3 nM | < 300 nM | 10 to 30 nM | 30 to 100 nM | 10 to 30 nM | < 3 nM |  |  |  |  | 
10 | O=C(NCCCC(Nc1cn[nH]c(=O)c1C(F)(F)F)C(=O)N1CCOCC1)c1ccc(-c2ncc(C(F)(F)F)s2)cc1 (stereo not drawn) [Example 88] | < 3 nM | 300 to 1000 nM | < 10 nM | 30 to 100 nM | 3 to 10 nM | < 3 nM |  |  |  |  | 
11 | O=C(NCCCC(Nc1cn[nH]c(=O)c1C(F)(F)F)C(=O)N1CCCC1)c1cnc(-c2ncc(C(F)(F)F)cn2)cn1 (stereo not drawn) [Example 89] | < 3 nM | 300 to 1000 nM | < 10 nM | 30 to 100 nM | 10 to 30 nM | < 3 nM |  |  |  |  | 
12 | O=C(NCCCC(Nc1cn[nH]c(=O)c1C(F)(F)F)C(=O)N1CCOCC1)c1cnc(-c2ncc(C(F)(F)F)cn2)cn1 (stereo not drawn) [Example 90] | < 3 nM | > 3000 nM | 30 to 100 nM | 30 to 100 nM | 30 to 100 nM | < 3 nM |  |  |  |  | 
13 | O=C(NCCc1n[nH]c(=O)c(C(F)(F)F)c1N1CC2(CCC2)C1)c1cnc(-c2ncc(C(F)(F)F)cn2)cn1 [Example 166] | 3 to 10 nM | > 3000 nM | > 100 nM | > 100 nM | > 100 nM | 3 to 10 nM |  |  |  |  | 
14 | CC(CCCNC(=O)c1ccc(-c2cc(C(F)(F)F)n(C)n2)cc1)Nc1cn[nH]c(=O)c1C(F)(F)F (stereo not drawn) [Example 185] | < 3 nM | 300 to 1000 nM | 30 to 100 nM |  |  |  |  |  |  |  | 
15 | CC(CCCNC(=O)c1ccc(-c2noc(C3CC3)n2)cc1)Nc1cn[nH]c(=O)c1C(F)(F)F (stereo not drawn) [Example 186] | < 3 nM | 1000 to 3000 nM | 10 to 30 nM |  |  |  |  |  |  |  | 
16 | CC(CCCNC(=O)c1ccc(-c2ccc(-c3cnco3)cn2)cc1)Nc1cn[nH]c(=O)c1C(F)(F)F (stereo not drawn) [Example 188] | < 3 nM | > 3000 nM | 10 to 30 nM |  |  |  |  |  |  |  | 
17 | Cc1nc(-c2ccc(C(=O)NCCCC(C)Nc3cn[nH]c(=O)c3C(F)(F)F)cc2)sc1C (stereo not drawn) [Example 189] | < 3 nM | 1000 to 3000 nM | 30 to 100 nM |  |  |  |  |  |  |  | 
18 | CC(CCCNC(=O)c1ccc(-c2nn(C)cc2F)cc1)Nc1cn[nH]c(=O)c1C(F)(F)F (stereo not drawn) [Example 192] | 3 to 10 nM | > 3000 nM | 30 to 100 nM |  |  |  |  |  |  |  | 
19 | CC(CCCNC(=O)c1cnc(-c2cc(C(F)(F)F)sn2)c(F)c1)Nc1cn[nH]c(=O)c1C(F)(F)F (stereo not drawn) [Example 205] | < 3 nM | 300 to 1000 nM | < 10 nM |  |  |  |  |  |  |  | 
20 | CC(CCCNC(=O)c1ccc(-n2cc(C(F)(F)F)cn2)nc1)Nc1cn[nH]c(=O)c1C(F)(F)F (stereo not drawn) [Example 206] | < 3 nM | 1000 to 3000 nM | < 10 nM |  |  |  |  |  |  |  | 
21 | CC(CCCNC(=O)c1ccc(-c2cc(C(F)(F)F)sn2)nc1)Nc1cn[nH]c(=O)c1C(F)(F)F (stereo not drawn) [Example 207] | < 3 nM | 1000 to 3000 nM | 10 to 30 nM |  |  |  |  |  |  |  | 
22 | CC(CCCNC(=O)c1ccc(-c2ncc(C(F)(F)F)s2)cn1)Nc1cn[nH]c(=O)c1C(F)(F)F (stereo not drawn) [Example 209] | < 3 nM | < 300 nM | 10 to 30 nM |  |  |  |  |  |  |  | 
23 | CC(CCCNC(=O)c1ccc(-c2ncc(C(F)(F)F)s2)nc1)Nc1cn[nH]c(=O)c1C(F)(F)F (stereo not drawn) [Example 211] | < 3 nM | 1000 to 3000 nM | < 10 nM |  |  |  |  |  |  |  | 
24 | CC(CCCNC(=O)c1ccc(-c2cc(C(F)(F)F)sn2)cc1F)Nc1cn[nH]c(=O)c1C(F)(F)F (stereo not drawn) [Example 212] | < 3 nM | < 300 nM | < 10 nM |  |  |  |  |  |  |  | 
25 | CC(CCCNC(=O)c1ccc(-c2cc(C(F)(F)F)nn2C)cc1)Nc1cn[nH]c(=O)c1C(F)(F)F (stereo not drawn) [Example 245] | 10 to 30 nM | > 3000 nM | > 100 nM |  |  |  |  |  |  |  | 
